Measurements from EP0500785B1, “A HUMAN T CELL REACTIVE FELINE PROTEIN (TRFP) ISOLATED FROM HOUSE DUST AND USES THEREFOR” (IMMULOGIC PHARMACEUTICAL CORPORATION, priority 1989, dated 2002).

Tested on: TRFP primed T cell cultures
Assay: T cell proliferation assay (tritiated thymidine incorporation) of TRFP-primed T cells restimulated with allergens or peptides
Format: cell-based, human
Description: Peripheral blood mononuclear cells (PBMC) were purified from 60 ml of heparinized blood from cat allergic patients. PBMC were subsequently treated as described below, although in individual cases, the length of time of cultivation with IL-2 and/or IL-4 and the specific peptides used for stimulation varied.
10 ml of PBMC from patient 131 at 10^6/ml were cultured at 37°C for 7 days in the presence of 5 micrograms purified TRFP/ml RPMI-1640 supplemented with 5% pooled human AB serum. Viable cells were purified by Ficoll-Hypaque centrifugation and cultured for three weeks at 5 units recombinant human IL-2/ml and 5 units recombinant human IL-4/ml. The resting T cells were then restimulated (secondary) with 5 micrograms TRFP at 2 x 10^5/ml in the presence of irradiated (3500 Rads) autologous PBMC at a concentration of 5 x 10^5/ml for three days, purified by Ficoll-Hypaque centrifugation and grown in 5 units IL-2 and 5 units IL-4/ml for two weeks. For assay, 2 x 10^4 resting secondary T cells were restimulated (tertiary) in the presence of 5 x 10^4 irradiated (3500 Rads) autologous PBMC or 2 x 10^4 transformed B cells (20,000 Rads) with various concentrations of allergens or their fragments in a volume of 200 microliters in a 96-well round bottom assay plates for 3 days. Each well then received 1 microCurie tritiated (methyl) thymidine for 16 hours. The counts incorporated were collected onto glass fiber filters and processed for liquid scintillation counting.
Antigens used: T cell reactive feline protein (TRFP), Hollister-Stier cat epithelium skin test reagent (CST), IPC ragweed pollen extract (pollen), and synthetic peptides derived from the TRFP protein sequence (See Figures 6 and 7). Significant T cell proliferation is generally regarded as greater than 2.5 times the media control (T cells and antigen presenting cells alone).
Alternatively, PBMC were treated as follows: the primary stimulated cells were cultured in IL-2/IL-4 for two weeks. The resting T cells derived from this culture were tested in a secondary assay with some, but not all, of the above allergens. […] This type of epitope analysis has allowed the definition of T cell epitopes present in TRFP.

[1] = Chain #1 TRFP peptides, average cpm with antigen divided by cpm of T cells and antigen presenting cells alone, responding patients, SI ≥ 2.5 positive
[2] = Chain #1 TRFP peptides, cat allergic patients, average SI of all responding patients multiplied by percent of patients with a positive response
[3] = Chain #2 TRFP peptides, cat allergic patients, average SI of responding patients multiplied by percent positive
[4] = Chain #2 TRFP peptides, cat allergic patients, average of responding patients

| Substance | SI [1] | PI [2] | PI [3] | SI [4] |
| --- | --- | --- | --- | --- |
| Fel 1-2: TRFP chain 1 peptide, amino acids 1 - 17 (EICPAVKRDVDLFLTGT; UniProt P30438 23-39, looked up, fragment) | 7.4 | 311 | – | – |
| Fel 3-1: TRFP chain 1 peptide, amino acids 18 - 33 (PDEYVEQVAQYKALPV; UniProt P30438 40-55, looked up, fragment) | 9.4 | 638 | – | – |
| Fel 3-11: TRFP chain 1 peptide, amino acids 18 - 30 (PDEYVEQVAQYKA; UniProt P30438 40-52, looked up, fragment) | 10.4 | 863 | – | – |
| Fel 3-13: TRFP chain 1 peptide, amino acids 18 - 28 (PDEYVEQVAQY; UniProt P30438 40-50, looked up, fragment) | 11.5 | 690 | – | – |
| Fel 3-15: TRFP chain 1 peptide, amino acids 18 - 29 (PDEYVEQVAQYK; UniProt P30438 40-51, looked up, fragment) | 10.4 | 1040 | – | – |
| Fel 8-1: TRFP chain 1 peptide, amino acids 5 - 33 (AVKRDVDLFLTGTPDEYVEQVAQYKALPV; UniProt P30438 27-55, looked up, fragment) | 15.1 | 1374 | – | – |
| Fel 8-2: TRFP chain 1 peptide, amino acids 6 - 33 (VKRDVDLFLTGTPDEYVEQVAQYKALPV; UniProt P30438 28-55, looked up, fragment) | 15.2 | 1353 | – | – |
| Fel 14-1: TRFP chain 1 peptide, amino acids 23 - 36 (EQVAQYKALPVVLE; UniProt P30438 45-58, looked up, fragment) | 9.9 | 871 | – | – |
| Fel 14-2: TRFP chain 1 peptide, amino acids 29 - 42 (KALPVVLENARILK; UniProt P30438 51-64, looked up, fragment) | 5.6 | 336 | – | – |
| Fel 14-4: TRFP chain 1 peptide, amino acids 26 - 36 (AQYKALPVVLE; UniProt P30438 48-58, looked up, fragment) | 6.0 | 474 | – | – |
| Fel 14-5: TRFP chain 1 peptide, amino acids 27 - 36 (QYKALPVVLE; UniProt P30438 49-58, looked up, fragment) | 5.4 | 286 | – | – |
| Fel 15: TRFP chain 1 peptide, amino acids 44 - 60 (CVDAKMTEEDKENALSV; UniProt P30438 66-82, looked up, fragment) | 11.0 | 440 | – | – |
| Fel 23: TRFP chain 1 peptide, amino acids 51 - 66 (EEDKENALSVLDKIYT; UniProt P30438 73-88, looked up, fragment) | 6.6 | 343 | – | – |
| Fel 30-2: TRFP chain 1 peptide, amino acids 25 - 48 (VAQYKALPVVLENARILKNCVDAK; UniProt P30438 47-70, looked up, fragment) | 4.2 | 248 | – | – |
| Fel 30-3: TRFP chain 1 peptide, amino acids 25 - 47 (VAQYKALPVVLENARILKNCVDA; UniProt P30438 47-69, looked up, fragment) | 4.8 | 230 | – | – |
| Fel 30-4: TRFP chain 1 peptide, amino acids 29 - 55 (KALPVVLENARILKNCVDAKMTEEDKE; UniProt P30438 51-77, looked up, fragment) | 11.6 | 1079 | – | – |
| Fel 30-5: TRFP chain 1 peptide, amino acids 29 - 54 (KALPVVLENARILKNCVDAKMTEEDK; UniProt P30438 51-76, looked up, fragment) | 11.0 | 792 | – | – |
| Fel 30-7: TRFP chain 1 peptide, amino acids 26 - 55 (AQYKALPVVLENARILKNCVDAKMTEEDKE; UniProt P30438 48-77, looked up, fragment) | 5.3 | 339 | – | – |
| Fel 30-8: TRFP chain 1 peptide, amino acids 28 - 55 (YKALPVVLENARILKNCVDAKMTEEDKE; UniProt P30438 50-77, looked up, fragment) | 4.1 | 262 | – | – |
| Fel 31-1: TRFP chain 2 peptide, amino acids 14 - 40 (FFAVANGNELLLDLSLTKVNATEPERT; UniProt P30440 31-57, looked up, fragment) | – | – | 733 | 9.4 |
| Fel 31-2: TRFP chain 2 peptide, amino acids 14 - 39 (FFAVANGNELLLDLSLTKVNATEPER; UniProt P30440 31-56, looked up, fragment) | – | – | 599 | 8.1 |
| Fel 31-4: TRFP chain 2 peptide, amino acids 14 - 37 (FFAVANGNELLLDLSLTKVNATEP; UniProt P30440 31-54, looked up, fragment) | – | – | 622 | 8.4 |
| Fel 31-5: TRFP chain 2 peptide, amino acids 14 - 36 (FFAVANGNELLLDLSLTKVNATE; UniProt P30440 31-53, looked up, fragment) | – | – | 539 | 7.6 |
| Fel 31-6: TRFP chain 2 peptide, amino acids 15 - 40 (FAVANGNELLLDLSLTKVNATEPERT; UniProt P30440 32-57, looked up, fragment) | – | – | 295 | 4.4 |
| Fel 31-7: TRFP chain 2 peptide, amino acids 15 - 36 (FAVANGNELLLDLSLTKVNATE; UniProt P30440 32-53, looked up, fragment) | – | – | 267 | 5.8 |
| Fel 32-1: TRFP chain 2 peptide, amino acids 12 - 24 (DVFFAVANGNELL; UniProt P30440 29-41, looked up, fragment) | – | – | 442 | 6.6 |
| Fel 32-2: TRFP chain 2 peptide, amino acids 14 - 24 (FFAVANGNELL; UniProt P30440 31-41, looked up, fragment) | – | – | 424 | 5.3 |
